We go through 6 compounds from ChEMBL document CHEMBL1140472, “Antioxidant properties and free radical-scavenging reactivity of a family of hydroxynaphthalenones and dihydroxyanthracenones” (Bioorg Med Chem, 2007).

What all share (format): functional
A short description of assay [1]: DPPH radical scavenging activity at 1.0 mM by ESR.
The nature of assay [2]: Galvinoxyl radical scavenging activity by ESR. Also noted: concentration or dose not given beside the values.
Assay [3] is described as follows: Hydroxyl radical scavenging activity at 0.6 mM by ESR.
The nature of assay [4]: Hydroxyl radical scavenging activity assessed as Trolox equivalent antioxidant capacity.
The nature of assay [5]: Hydroxyl radical scavenging activity at 1.0 mM by ESR.
Assay [6] is described as follows: DPPH radical scavenging activity at 2.0 mM by ESR. In general terms: DPPH is a stable violet radical that fades when it is reduced.

`CC1(C)C=CC(=O)c2c(O)ccc(O)c21`: the Activity in assay [1] came to 4%; in assay [2] it was 0%; in assay [3], 47.5%; in assay [5] it was 50%. Also, the Ratio in assay [4] was 3.76.
Consider `COc1ccc(O)c2c1C(=O)C=CC2(C)C`, for which the Activity in assay [1] came to 4%; in assay [2], 0%; in assay [3], 47.5%; in assay [5], 48.2%. The Ratio in assay [4] turned out to be 3.42.
The like results for `CC1(C)C=CC(=O)c2c(O)c3c(c(O)c21)CC=CC3` were, in that order, 4%, 0%, 47.5%, 68.2% and 5.86.
Taken in the same sequence, the figures for `COc1ccc(O)c2c1C(C)(C)C=CC2=O` were 4%, 0%, 47.5%, 47.5% and 1.56.
Taken in the same sequence, the figures for `CC1C=CC(CO)c2c(O)c3c(c(O)c21)C(C)(C)C=CC3=O` (stereo unspecified) were 4%, 0%, 47.5%, 72% and 6.41.
For `CC1C=CC(CO)c2c(O)c3c(c(O)c21)C(=O)C=CC3(C)C` (stereo unspecified), the Activity in assay [6] came out at 93%; in assay [1], 4%; in assay [2] it was 0%; in assay [3] it was 47.5%; in assay [5], 71.3%. In addition, in assay [4], the Ratio came to 5.1.
